We go through two compounds from patent US9475755B2, “Prophylactic agent for chronic kidney disease” (SBI Pharmaceuticals Co., Ltd., priority 2011, dated 2016).

The test system of data set [1] is chronic kidney disease. The data set can be described thus: Example 2: ingestion by a person diagnosed with chronic kidney disease, dose switched 50 mg / 5 mg / 50 mg. It counts as in vivo, human.
Excerpt: The effects of ingesting aminolevulinic acid phosphate and sodium ferrous citrate were examined for a person diagnosed with chronic kidney disease.
In data set [2] the test system is chronic kidney disease. The data set can be described thus: Example 3: ingestion by a person with chronic kidney disease after removal of one kidney. It counts as in vivo, human. As to conditions: after ingestion of 150 mg aminolevulinic acid phosphate and 172 mg sodium ferrous citrate per day. The source says:
The effects of ingesting aminolevulinic acid phosphate and sodium ferrous citrate were examined for a person diagnosed with chronic kidney disease after removing one of their kidneys about 5 years ago because of cancer.

Data set [3] is described as follows: Administration of radiolabeled ALA (14C-ALA) to research the pharmacokinetics of ALA. It counts as in vivo.
The next data set has as its system anemia in piglets. As to conditions: reported in Patent Document 1; cited from earlier work.
[4] abbreviates: (c) after one month of switching to 5 mg aminolevulinic acid phosphate + 5.74 mg sodium ferrous citrate.
The mark [5] stands for this setting: (d) after two months of switching to 5 mg aminolevulinic acid phosphate + 5.74 mg sodium ferrous citrate.

Take aminolevulinic acid phosphate: the Serum creatinine in the data set on chronic kidney disease [1] (setting [4]) is 1.14 mg/dL; in the data set on chronic kidney disease [1] (setting [5]), 1.25 mg/dL. Besides, the Urea nitrogen in the data set with chronic kidney disease [1] (setting [4]) amounted to 12.90 mg/dL; in the data set with chronic kidney disease [1] (setting [5]), 14.10 mg/dL. The eGFR is reported as 50.10 mL/min/1.73 m^2 with chronic kidney disease [1] (setting [4]) and 45.30 mL/min/1.73 m^2 in the data set on chronic kidney disease [1] (setting [5]). Moreover, in the data set on chronic kidney disease [1] (person who ingested aminolevulinic acid phosphate and sodium ferrous citrate), the “fatigue / quality of life” value is listed as “relieved from the fatigue peculiar to chronic kidney disease”. Further, the “eGFR value (in words)” value with chronic kidney disease [1] (when 50 mg of aminolevulinic acid phosphate was ingested) is listed as “remarkably improved (increased)”; in the data set on chronic kidney disease [1] (when once again returned to 50 mg), “remarkable improvement”. For the same compound, in the data set on chronic kidney disease [1] (when reduced to 5 mg aminolevulinic acid phosphate and 5.74 mg sodium ferrous citrate), the “improvement rate of the eGFR value (in words)” value is on record as “lowered”. For the same compound, the “serum creatinine (FIG. 1, in words)” value in the data set on chronic kidney disease [2] is recorded as “remarkable reduction”.

Take `NCC(=O)CCC(=O)O` [ALA, 5-aminolevulinic acid]: in data set [3] (ALA excessively administered, even if urine is discharged), the “retention of radiation in the kidneys” value is listed as “radiation has remained in the kidneys even after the passing of time”. The “tissue accumulation of ALA-derived radiation” value in data set [3] (radiolabeled ALA (14C-ALA) administered) is “found in not only the anticipated liver and muscles, but also in the kidneys”. Also, the prevention of anemia result with anemia in piglets was “effective in preventing anemia in piglets”.
